Data as given in US20260062412A1, “NITROGEN-CONTAINING HETEROCYCLIC COMPOUND HAVING MYT1 INHIBITORY ACTIVITY” (CHUGAI SEIYAKU KABUSHIKI KAISHA, priority 2023, published 2026).
Structures can show the parent of a compound that is named as a salt.

Legend:
[1] = biological target: T1, MYT1 protein (Homo sapiens (Human), UniProt Q99640); test: Test for binding to ATP binding site of MYT1 (Kinase Tracer 178 / Eu-Anti-GST antibody TR-FRET); conditions: ATP binding site of MYT1, 30 minutes at room temperature
T1 sequence (Q99640 whole entry): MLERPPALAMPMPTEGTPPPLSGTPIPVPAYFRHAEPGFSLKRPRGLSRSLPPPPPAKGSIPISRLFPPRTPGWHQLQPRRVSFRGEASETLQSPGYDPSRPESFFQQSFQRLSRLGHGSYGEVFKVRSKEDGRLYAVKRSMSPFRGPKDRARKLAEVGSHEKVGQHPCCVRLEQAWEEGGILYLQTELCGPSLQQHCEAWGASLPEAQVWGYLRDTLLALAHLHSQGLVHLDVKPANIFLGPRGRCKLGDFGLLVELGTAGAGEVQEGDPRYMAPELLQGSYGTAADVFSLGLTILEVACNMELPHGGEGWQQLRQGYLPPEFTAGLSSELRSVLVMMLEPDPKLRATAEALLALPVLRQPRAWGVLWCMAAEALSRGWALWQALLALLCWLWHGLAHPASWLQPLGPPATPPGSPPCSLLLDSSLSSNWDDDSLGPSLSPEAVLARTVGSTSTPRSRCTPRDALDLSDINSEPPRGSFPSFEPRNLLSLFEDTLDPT

[2] = biological target: T1, MYT1 protein; test: MYT1 kinase activity inhibition test (ELISA, phosphorylation of Y15 of CDK1); assay type: biochemical; conditions: phosphorylation level of Y15 of CDK1 protein caused by MYT1 protein, 60 minutes
Protocol: The MYT1 kinase activity inhibitory capacity of each compound was evaluated by evaluating the phosphorylation level of Y15 of CDK1 protein caused by MYT1 protein, by ELISA. The kit of CycLex Weel Kinase Assay/Inhibitor Screening Kit Ver. 3 (manufactured by MBL, CY-1172V3) was used. Using Kinase Buffer, 10 μL of 5 nM MYT1 protein (manufactured by Carna Biosciences, Inc.) was prepared. In addition, 30 μL of 83.3 μM of ATP was prepared using Kinase Buffer. In addition, 10 μL of each compound was diluted to each concentration using Kinase Buffer. 30 μL of ATP was added to the plate of the kit, and thereafter, 10 μL of each compound was added thereto. Further, 10 μL of the diluted MYT1 protein solution was added thereto, and then the mixture was mixed, which was allowed to stand at room temperature for 60 minutes. The reaction solution was removed from each well, and each well was washed using Wash Buffer. After Wash Buffer was removed, 100 μL of HRP conjugated Anti-phospho-tyrosine antibody was added to each well, which was allowed to stand at room temperature for 60 minutes. Thereafter, the reaction solution was removed from each well, and each well was washed using Wash Buffer. After Wash Buffer was removed, 100 μL of Substrate Reagent was added to each well, which was allowed to stand at room temperature for 8 minutes. Thereafter, 100 μL of Stop Solution (1 N sulfuric acid) was added to each well according to the manual. Absorbances at 450 nm and 590 nm were measured using Envision (manufactured by PerkinElmer). The phosphorylation level of CDK1 protein was evaluated for each well by subtracting the absorbance at 590 nm from the absorbance at 450 nm. The inhibition rate of each compound added at each concentration was calculated by setting the signal when the compound was not added as 100% and the signal when MYT1 protein was not added as 0%, and the calculation results of IC50 were shown in Table 4.

**Q.** `N#Cc1cc2c(-c3ccc(F)c4[nH]ncc34)c(N)c(=O)[nH]c2c2ccccc12` [Compound B26, 3-Amino-4-(7-fluoro-1H-indazol-4-yl)-2-oxo-1H-benzo[h]quinoline-6-carbonitrile] was tested. Which IC50 [1] did it give?
**A.** 10 nM

**Q.** What about the IC50 [2] of the same molecule?
**A.** 0.37 nM

**Q.** With `Nc1c(-c2ccc(Cl)c3[nH]ncc23)c2cc(Cl)c(Br)cc2[nH]c1=O` [Compound A27, 3-Amino-7-bromo-6-chloro-4-(7-chloro-1H-indazol-4-yl)-1H-quinolin-2-one] as the molecule, how does the IC50 [1] read?
**A.** 40 nM

**Q.** And the IC50 [2]?
**A.** 0.52 nM

**Q.** What does the source list for `CP(C)(=O)c1cc2c(-c3ccc(F)c4[nH]ncc34)c(N)c(=O)[nH]c2c2ccccc12` [Compound B31, 3-Amino-6-dimethylphosphoryl-4-(7-fluoro-1H-indazol-4-yl)-1H-benzo[h]quinolin-2-one]?
**A.** IC50 [1]: 19 nM; IC50 [2]: 0.32 nM

**Q.** For `Nc1c(-c2cccc(F)c2)c2ccc3ccccc3c2[nH]c1=O` [Compound B50, 3-Amino-4-(3-fluorophenyl)-1H-benzo[h]quinolin-2-one; hydrochloride], which IC50 [1] is on record?
**A.** 750 nM

**Q.** What about the IC50 [2] of the same molecule?
**A.** 210 nM

**Q.** For `Nc1c(-c2ccc(F)c3[nH]ncc23)c2cc(Cl)c3ccccc3c2[nH]c1=O` [Compound B34, 3-Amino-6-chloro-4-(7-fluoro-1H-indazol-4-yl)-1H-benzo[h]quinolin-2-one], which IC50 [1] is on record?
**A.** 33 nM

**Q.** And the IC50 [2]?
**A.** 0.86 nM

**Q.** What does the source list for `Cc1cc2c(-c3ccc(F)c4[nH]ncc34)c(N)c(=O)[nH]c2c2ccccc12` [Compound B27, 3-Amino-4-(7-fluoro-1H-indazol-4-yl)-6-methyl-1H-benzo[h]quinolin-2-one]?
**A.** IC50 [1]: 7.3 nM; IC50 [2]: 0.21 nM

**Q.** For `Nc1c(-c2cc(F)cc3[nH]ncc23)c2cc(Cl)ccc2[nH]c1=O` [Compound A56, 3-Amino-6-chloro-4-(6-fluoro-1H-indazol-4-yl)-1H-quinolin-2-one], which IC50 [1] is on record?
**A.** 58 nM

**Q.** And the IC50 [2]?
**A.** 1.1 nM

**Q.** Which results are given for `Nc1c(-c2ccc(C(F)(F)F)c3[nH]ncc23)c2cc(Cl)ccc2[nH]c1=O` [Compound A61, 3-Amino-6-chloro-4-[7-(trifluoromethyl)-1H-indazol-4-yl]-1H-quinolin-2-one]?
**A.** IC50 [1]: 140 nM; IC50 [2]: 5 nM

**Q.** With `Nc1c(-c2cccc3[nH]ncc23)c2ccc3ncccc3c2[nH]c1=O` [Compound C186, 3-Amino-4-(1H-indazol-4-yl)-1H-1,7-phenanthrolin-2-one] as the molecule, how does the IC50 [1] read?
**A.** 6.8 nM

**Q.** What about the IC50 [2] of the same molecule?
**A.** 3.9 nM

**Q.** `Cc1ccc(-c2c(N)c(=O)[nH]c3ccc(Cl)cc23)c2cn[nH]c12` [Compound A60, 3-Amino-6-chloro-4-(7-methyl-1H-indazol-4-yl)-1H-quinolin-2-one] was tested. Which IC50 [1] did it give?
**A.** 7 nM

**Q.** What about the IC50 [2] of the same molecule?
**A.** 0.55 nM

**Q.** Which results are given for `N#Cc1cc2c(-c3cccc(O)c3)c(N)c(=O)[nH]c2c2ccccc12` [Compound B7, 3-Amino-4-(3-hydroxyphenyl)-2-oxo-1H-benzo[h]quinoline-6-carbonitrile]?
**A.** IC50 [1]: 6 nM; IC50 [2]: 5.7 nM

**Q.** What does the source list for `Nc1c(-c2ccc(Cl)c3[nH]ncc23)c2cc(Cl)c(OC(F)F)cc2[nH]c1=O` [Compound A30, 3-Amino-6-chloro-4-(7-chloro-1H-indazol-4-yl)-7-(difluoromethoxy)-1H-quinolin-2-one]?
**A.** IC50 [1]: 43 nM; IC50 [2]: 0.71 nM

**Q.** `Nc1c(-c2ccc(F)c3[nH]ncc23)c2cc(Cl)ccc2[nH]c1=O` [Compound A57, 3-Amino-6-chloro-4-(7-fluoro-1H-indazol-4-yl)-1H-quinolin-2-one] was tested. Which IC50 [1] did it give?
**A.** 13 nM

**Q.** And the IC50 [2]?
**A.** 0.61 nM

**Q.** Which results are given for `Nc1c(-c2cccc3[nH]ncc23)c2cc(Cl)c3ncccc3c2[nH]c1=O` [Compound C79, 3-Amino-6-chloro-4-(1H-indazol-4-yl)-1H-1,7-phenanthrolin-2-one]?
**A.** IC50 [1]: 11 nM; IC50 [2]: 0.3 nM

**Q.** Which results are given for `Nc1c(-c2cccc(O)c2)c2ccc3ncccc3c2[nH]c1=O` [Compound C184, 3-Amino-4-(3-hydroxyphenyl)-1H-1,7-phenanthrolin-2-one; hydrobromide]?
**A.** IC50 [1]: 10 nM; IC50 [2]: < 4.6 nM

**Q.** Which results are given for `Nc1c(-c2cccc(O)c2)c2ccc3ccccc3c2[nH]c1=O` [Compound B2, 3-Amino-4-(3-hydroxyphenyl)-1H-benzo[h]quinolin-2-one]?
**A.** IC50 [1]: 22 nM; IC50 [2]: 4 nM
